Source: patent publication US20080188494A1 (priority 2005, published 2008)

Legend:
[1] = test system: Plasmopara viticola; assay: Activity against peronospora of grapevines caused by Plasmopara viticola (Use Example 3); format: in vivo; settings: 250 ppm, potted vines sprayed to runoff, inoculated next day; untreated plants 90% infected
Experimental: (§1) The active compounds were prepared as a stock solution comprising 25 mg of active compound which was made up to 10 ml using a mixture of acetone and/or DMSO and the emulsifier Uniperol® EL (wetting agent having emulsifying and dispersing action based on ethoxylated alkylphenols) in a volume ratio of solvent/emulsifier of 99/1. The mixture was then made up to 100 ml with water. This stock solution was diluted with the solvent/emulsifier/water mixture described to the concentration of active compounds stated below.
(§2) Leaves of potted vines were sprayed to runoff point with an aqueous suspension having the concentration of active compounds stated below. The next day, the undersides of the leaves were inoculated with an aqueous sporangia suspension of Plasmopara viticola. The vines were then initially placed in a water-vapor-saturated chamber at 24° C. for 48 hours and then in a greenhouse at temperatures between 20° C. and 30° C. for 5 days. After this time, the plants were once more placed in a humid chamber for 16 hours to accelerate the eruption of sporangiospores. The extent of the development of the infection on the undersides of the leaves was then determined visually.

[2] = test system: Plasmopara viticola; assay: Activity against peronospora of grapevines caused by Plasmopara viticola (Comparative Example 1, inoculation next day); format: in vivo; settings: 250 ppm, potted vines sprayed to runoff, inoculated next day; untreated plants 90% infected
Experimental: as §1, §2

[3] = test system: Plasmopara viticola; assay: Activity against peronospora of grapevines caused by Plasmopara viticola, 7 day protective treatment (Comparative Example 2); format: in vivo; settings: 250 ppm, potted vines, inoculated 7 days after spraying; untreated plants 90% infected
Experimental: as §1
Leaves of potted vines were sprayed to runoff point with an aqueous suspension having the concentration of active compounds stated below. To be able to assess the persistency of the substances, the plants were, after the spray coating had dried on, placed in a greenhouse for 7 days. Only then were the leaves inoculated with an aqueous zoospore suspension of Plasmopara viticola. The vines were then initially placed in a water-vapor-saturated chamber at 24° C. for 48 hours and then in a greenhouse at temperatures between 20 and 30° C. for 5 days. After this time, the plants were once more placed in a humid chamber to accelerate the eruption of sporangiospores. The extent of the development of the infection on the undersides of the leaves was then determined visually.

SMILES | infection of the plants (undersides of leaves, determined visually) [1] | melting point | infection of the plants (undersides of leaves, determined visually) [2] | infection of the plants (undersides of leaves, determined visually) [3]
CCc1nc2ncnn2c(N)c1CCc1ccccc1 [I-1, 7-amino-5-ethyl-6-(2-phenylethyl)-(1,2,4)-triazolo-(1,5-a)-pyrimidine] | no infection | 210 to 211 °C |  | 
Cc1nc2ncnn2c(N)c1CCCc1ccccc1 [Compound A] |  |  | 90% | 70%
CCCc1nc2ncnn2c(N)c1CCc1ccccc1 [I-2, 7-amino-6-(2-phenylethyl)-5-propyl-(1,2,4)-triazolo-(1,5-a)-pyrimidine] | no infection | 190 to 191 °C |  | 
